The data set relates to mouse. Type of data set: in vivo. Conditions: oral administration at 5 g/kg weight. The source says:
The theanine used in the present invention has high safety. […] Also, especially L-theanine is known as a main component of umami (tastiness) of the green tea, and is also used as a food additive giving umami, without the limitation of its added amount under the regulation for food hygiene. Moreover, contrary to the conventional drugs, since there is no side effect by theanine at all, the mood disorders can be safely and effectively treated, ameliorated or the like according to the composition of the present invention.

Structures are written as SMILES.

In the case of `CCNC(=O)CC[C@H](N)C(=O)O` [theanine], the cases of death result is “no cases of death”.
